pIC50: −log10 of the molar value. Active and inactive are the calls of the source. The calls are words filed in the database; no cut-off is given here.
Experiments:
Mus musculus [1] = assay: Renal protective activity against adenine and potassium oxonate-induced hyperuricemia Kunming mouse model assessed as reduction in renal inflammation by measuring reduction in TNF-alpha expression at 5 to 20 mg/kg, po administered via gavage for 2 weeks by Western blot analysis; assay type: functional, organism-based; settings: dose 5-20 mg/kg
HK-2 [2] = assay: Antiinflammatory activity in hyperuricemic human HK-2 cells assessed as reduction in TGF-beta level at 12.5 to 100 uM; assay type: functional, cell-based; settings: dose 12.5-100 µM
Mus musculus [3] = assay: Renal protective activity against adenine and potassium oxonate-induced hyperuricemia Kunming mouse model assessed as reduction in extracellular matrix protein deposition by measuring interstitial expansion with collagen accumulation at 5 to 20 mg/kg, po administered via gavage for 2 weeks by Masson trichrome staining based optical microscopic analysis; assay type: functional, organism-based; settings: dose 5-20 mg/kg
Mus musculus [4] = assay: Renal protective activity against adenine and potassium oxonate-induced hyperuricemia Kunming mouse model assessed as reduction in IL-8 expression in kidney at 5 to 20 mg/kg, po administered via gavage for 2 weeks by ELISA relative to control; assay type: functional; parameters: scale not given: the % may be the effect or the level left; settings: dose 5-20 mg/kg
Mus musculus [5] = assay: Anti-hyperuricemic activity against adenine and potassium oxonate-induced hyperuricemia Kunming mouse model assessed as reduction in serum uric acid level at 5 mg/kg, po administered via gavage once daily for 4 weeks (reference value: 356.15 +/- 3.31 uM); assay type: functional
Mus musculus [6] = assay: Anti-hyperuricemic activity against adenine and potassium oxonate-induced hyperuricemia Kunming mouse model assessed as blood urea nitrogen level at 20 mg/kg, po administered via gavage once daily for 2 weeks (reference value: 9.88 +/- 1.21 mM); assay type: functional
Mus musculus [7] = assay: Anti-hyperuricemic activity against adenine and potassium oxonate-induced hyperuricemia Kunming mouse model assessed as blood urea nitrogen level at 10 mg/kg, po administered via gavage once daily for 4 weeks (reference value: 15.25 +/- 1.21 mM); assay type: functional
Mus musculus [8] = assay: Nephroprotective activity against adenine and potassium oxonate-induced hyperuricemia Kunming mouse model assessed as reduction in cytoplasmic vacuolation of renal tubular epithelial cells at 20 mg/kg, po administered via gavage and measured after 21 days by hematoxylin-eosin and Masson trichrome staining based optical microscopic analysis; assay type: functional, organism-based; settings: time 21.0 day
Mus musculus [9] = assay: Renal protective activity against adenine and potassium oxonate-induced hyperuricemia Kunming mouse model assessed as reduction in renal inflammation by measuring reduction in TLR4 expression at 5 to 20 mg/kg, po administered via gavage for 2 weeks by Western blot analysis; assay type: functional, organism-based; settings: dose 5-20 mg/kg
Mus musculus [10] = assay: Anti-hyperuricemic activity against adenine and potassium oxonate-induced hyperuricemia Kunming mouse model assessed as reduction in serum uric acid level at 20 mg/kg, po administered via gavage once daily for 4 weeks (reference value: 356.15 +/- 3.31 uM); assay type: functional
Mus musculus [11] = assay: Anti-hyperuricemic activity against adenine and potassium oxonate-induced hyperuricemia Kunming mouse model assessed as reduction in creatinine level at 5 mg/kg, po administered via gavage once daily for 4 weeks (reference value: 76.87 +/- 0.67 uM); assay type: functional
[12] = Stability in simulated intestinal fluid assessed as parent compound remaining incubated for 4 hrs by HPLC analysis; assay type: ADME; settings: read-out: Stability
[13] = molecular target: Xanthine dehydrogenase/oxidase (Bos taurus, UniProt P80457); assay: Inhibition of bovine XOD assessed as inhibition of uric acid formation using xanthine as substrate preincubated with enzyme for 5 mins followed by substrate addition and measured for 30 mins by microplate reader analysis
Xanthine dehydrogenase/oxidase, sequence (P80457 whole entry): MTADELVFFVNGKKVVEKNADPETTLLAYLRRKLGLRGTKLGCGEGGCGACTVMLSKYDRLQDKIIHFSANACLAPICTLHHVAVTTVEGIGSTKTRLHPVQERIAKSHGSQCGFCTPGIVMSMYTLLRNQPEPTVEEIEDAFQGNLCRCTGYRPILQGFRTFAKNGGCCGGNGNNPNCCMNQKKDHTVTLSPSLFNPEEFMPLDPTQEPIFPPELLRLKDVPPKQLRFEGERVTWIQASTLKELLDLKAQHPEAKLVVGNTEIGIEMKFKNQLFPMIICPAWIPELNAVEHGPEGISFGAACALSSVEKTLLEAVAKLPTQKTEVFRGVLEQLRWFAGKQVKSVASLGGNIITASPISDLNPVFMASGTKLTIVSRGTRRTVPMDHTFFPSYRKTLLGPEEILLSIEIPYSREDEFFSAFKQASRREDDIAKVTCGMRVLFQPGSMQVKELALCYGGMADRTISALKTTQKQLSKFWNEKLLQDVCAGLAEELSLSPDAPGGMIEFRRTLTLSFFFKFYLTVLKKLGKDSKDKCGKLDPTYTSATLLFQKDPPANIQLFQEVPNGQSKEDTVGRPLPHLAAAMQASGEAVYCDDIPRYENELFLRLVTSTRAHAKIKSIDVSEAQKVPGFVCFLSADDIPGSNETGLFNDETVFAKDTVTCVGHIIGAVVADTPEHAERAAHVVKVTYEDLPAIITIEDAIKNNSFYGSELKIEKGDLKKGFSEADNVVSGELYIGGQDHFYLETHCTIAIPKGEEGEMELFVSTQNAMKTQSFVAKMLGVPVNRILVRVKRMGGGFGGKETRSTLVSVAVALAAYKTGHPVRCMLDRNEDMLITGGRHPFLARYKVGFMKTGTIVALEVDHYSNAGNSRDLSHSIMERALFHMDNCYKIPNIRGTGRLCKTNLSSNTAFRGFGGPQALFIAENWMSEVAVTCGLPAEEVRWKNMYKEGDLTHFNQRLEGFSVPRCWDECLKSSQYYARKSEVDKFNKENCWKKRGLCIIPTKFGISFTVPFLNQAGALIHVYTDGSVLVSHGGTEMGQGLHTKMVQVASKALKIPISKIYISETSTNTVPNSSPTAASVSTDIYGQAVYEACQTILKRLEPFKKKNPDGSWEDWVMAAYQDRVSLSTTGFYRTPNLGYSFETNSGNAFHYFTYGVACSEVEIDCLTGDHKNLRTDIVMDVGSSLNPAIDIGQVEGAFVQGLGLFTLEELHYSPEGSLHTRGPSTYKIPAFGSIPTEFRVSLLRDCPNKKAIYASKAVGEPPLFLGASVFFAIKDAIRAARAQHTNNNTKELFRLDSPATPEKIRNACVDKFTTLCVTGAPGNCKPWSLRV

Mus musculus [14] = assay: Anti-hyperuricemic activity against adenine and potassium oxonate-induced hyperuricemia Kunming mouse model assessed as reduction in creatinine level at 20 mg/kg, po administered via gavage once daily for 4 weeks (reference value: 76.87 +/- 0.67 uM); assay type: functional
Mus musculus [15] = assay: Renal protective activity against adenine and potassium oxonate-induced hyperuricemia Kunming mouse model assessed as reduction in hyperuricemia-induced renal fibrosis by measuring reduction in alpha-SMA expression in kidney at 5 to 20 mg/kg, po administered via gavage for 2 weeks by immunoblot analysis; assay type: functional, organism-based; settings: dose 5-20 mg/kg
Mus musculus [16] = assay: Nephroprotective activity against adenine and potassium oxonate-induced hyperuricemia Kunming mouse model assessed as reduction in neutrophils infiltrations at 20 mg/kg, po administered via gavage and measured after 21 days by hematoxylin-eosin and Masson trichrome staining based optical microscopic analysis; assay type: functional, organism-based; settings: time 21.0 day
Mus musculus [17] = assay: Anti-hyperuricemic activity against adenine and potassium oxonate-induced hyperuricemia Kunming mouse model assessed as reduction in serum uric acid level at 20 mg/kg, po administered via gavage once daily for 2 weeks (reference value: 318.16 +/- 3.31 uM); assay type: functional
HK-2 [18] = assay: Antiinflammatory activity in hyperuricemic human HK-2 cells assessed as reduction in TNF-alpha level at 12.5 to 100 uM; assay type: functional, cell-based; settings: dose 12.5-100 µM
Mus musculus [19] = assay: Anti-hyperuricemic activity against adenine and potassium oxonate-induced hyperuricemia Kunming mouse model assessed as reduction in serum uric acid level at 10 mg/kg, po administered via gavage once daily for 4 weeks (reference value: 356.15 +/- 3.31 uM); assay type: functional
Mus musculus [20] = assay: Renal protective activity against adenine and potassium oxonate-induced hyperuricemia Kunming mouse model assessed as reduction in IL-1beta expression in kidney at 5 to 20 mg/kg, po administered via gavage for 2 weeks by ELISA relative to control; assay type: functional; parameters: scale not given: the % may be the effect or the level left; settings: dose 5-20 mg/kg
Mus musculus [21] = assay: Renal protective activity against po dosed adenine and potassium oxonate-induced hyperuricemia Kunming mouse model assessed as reduction in TGF-beta1 expression in kidney administered via gavage for 2 weeks by immunohistochemical staining based optical microscopic analysis; assay type: functional, organism-based; settings: dose 5-20 mg/kg, DDE = dose-dependent effect
Mus musculus [22] = assay: Anti-hyperuricemic activity against adenine and potassium oxonate-induced hyperuricemia Kunming mouse model assessed as blood urea nitrogen level at 20 mg/kg, po administered via gavage once daily for 4 weeks (reference value: 15.25 +/- 1.21 mM); assay type: functional
HK-2 [23] = assay: Inhibition of epithelial-mesenchymal transition in human HK-2 cells assessed as downregulation of uric acid-induced collagen-1 protein expression by Western blot analysis; assay type: functional, cell-based; settings: dose 12.5-100 µM, DDE = dose-dependent effect
HK-2 [24] = assay: Cytoprotective activity in human HK-2 cells assessed as reduction in uric acid-induced increase in branches and intracellular space by inverted light microscopic analysis; assay type: functional, cell-based; settings: dose 12.5-100 µM
HK-2 [25] = assay: Inhibition of epithelial-mesenchymal transition in human HK-2 cells assessed as downregulation of uric acid-induced alpha-SMA protein expression by Western blot analysis; assay type: functional, cell-based; settings: dose 12.5-100 µM, DDE = dose-dependent effect
Mus musculus [26] = assay: Anti-hyperuricemic activity against adenine and potassium oxonate-induced hyperuricemia Kunming mouse model assessed as blood urea nitrogen level at 5 mg/kg, po administered via gavage once daily for 4 weeks (reference value: 15.25 +/- 1.21 mM); assay type: functional
[27] = Stability in simulated gastric fluid assessed as parent compound remaining incubated for 4 hrs by HPLC analysis; assay type: ADME; settings: read-out: Stability
Mus musculus [28] = assay: Renal protective activity against po dosed adenine and potassium oxonate-induced hyperuricemia Kunming mouse model assessed as reduction in urate accumulation in kidney administered via gavage for 2 weeks by polarization microscopic analysis; assay type: functional, organism-based; settings: dose 5-20 mg/kg, DDE = dose-dependent effect
Mus musculus [29] = assay: Anti-hyperuricemic activity against adenine and potassium oxonate-induced hyperuricemia Kunming mouse model assessed as reduction in serum creatinine level at 20 mg/kg, po administered via gavage once daily for 2 weeks (reference value: 87.62 +/- 0.67 uM); assay type: functional
HK-2 [30] = assay: Antiinflammatory activity in hyperuricemic human HK-2 cells assessed as reduction in IL-1beta level at 12.5 to 100 uM; assay type: functional, cell-based; settings: dose 12.5-100 µM
Mus musculus [31] = assay: Renal protective activity against adenine and potassium oxonate-induced hyperuricemia Kunming mouse model assessed as reduction in hyperuricemia-induced renal fibrosis by measuring tubular dilation with epithelial atrophy at 5 to 20 mg/kg, po administered via gavage for 2 weeks by Masson trichrome staining based optical microscopic analysis; assay type: functional, organism-based; settings: dose 5-20 mg/kg

For `CC(=O)OCC1=CC[C@@H]2C(C(=O)Nc3ncco3)=CO[C@@H](O[C@@H]3O[C@H](COC(C)=O)[C@@H](OC(C)=O)[C@H](OC(C)=O)[C@H]3OC(C)=O)[C@H]12`, the Activity (Mus musculus [1]) was “Active”, the Activity (HK-2 [2]) was “Active” and the Activity (Mus musculus [3]) was “Active”. It also gave an Activity (Mus musculus [4]) greater than 50%, an Activity (Mus musculus [5]) of 198.27 µM and an Activity (Mus musculus [6]) of 5.62 mM. For the same molecule, the Activity (Mus musculus [7]) was 8.82 mM, the Activity (Mus musculus [8]) was “Active” and the Activity (Mus musculus [9]) was “Active”. The Activity (Mus musculus [10]) was 182.66 µM, the Activity (Mus musculus [11]) was 54.79 µM and the remaining at 4 h [12] was 53.3%. For the same molecule, the pIC50 [13] was 5.86, the Activity (Mus musculus [14]) was 38.81 µM and the Activity (Mus musculus [15]) was “Active”. For the same molecule, the Activity (Mus musculus [16]) was “Active”, the Activity (Mus musculus [17]) was 235.87 µM and the Activity (HK-2 [18]) was “Active”. The Activity (Mus musculus [19]) was 188.16 µM, the Activity (Mus musculus [20]) was greater than 50% and the Activity (Mus musculus [21]) was “Dde”. For the same molecule, the Activity (Mus musculus [22]) was 8.02 mM, the inhibition (HK-2 [23]) was “Dde” and the Activity (HK-2 [24]) was “Active”. The inhibition (HK-2 [25]) was “Dde”, the Activity (Mus musculus [26]) was 10.05 mM and the remaining at 4 h [27] was 47.6%. For the same molecule, the Activity (Mus musculus [28]) was “Dde”, the Activity (Mus musculus [29]) was 29.08 µM and the Activity (HK-2 [30]) was “Active”. For the same molecule, the Activity (Mus musculus [31]) was “Active”.

Reference: ChEMBL document CHEMBL5120838, “Synthesis and biological evaluation of geniposide derivatives as inhibitors of hyperuricemia, inflammatory and fibrosis” (Eur J Med Chem, 2022)
